The text below walks through data of paper PMC9910069 (ACS Omega, 2023).

Assay [1] has as its target Electric eel AChE (type-VI-S) (Electrophorus electricus, UniProt O42275). The assay is described as follows: Anti-cholinesterase inhibition assay. The assay is classed as biochemical.
Assay [2] has as its target equine BChE (Equus caballus, UniProt P81908). Briefly: Anti-cholinesterase inhibition assay. The assay is classed as biochemical.

Electric eel AChE (type-VI-S), sequence (O42275 24-633): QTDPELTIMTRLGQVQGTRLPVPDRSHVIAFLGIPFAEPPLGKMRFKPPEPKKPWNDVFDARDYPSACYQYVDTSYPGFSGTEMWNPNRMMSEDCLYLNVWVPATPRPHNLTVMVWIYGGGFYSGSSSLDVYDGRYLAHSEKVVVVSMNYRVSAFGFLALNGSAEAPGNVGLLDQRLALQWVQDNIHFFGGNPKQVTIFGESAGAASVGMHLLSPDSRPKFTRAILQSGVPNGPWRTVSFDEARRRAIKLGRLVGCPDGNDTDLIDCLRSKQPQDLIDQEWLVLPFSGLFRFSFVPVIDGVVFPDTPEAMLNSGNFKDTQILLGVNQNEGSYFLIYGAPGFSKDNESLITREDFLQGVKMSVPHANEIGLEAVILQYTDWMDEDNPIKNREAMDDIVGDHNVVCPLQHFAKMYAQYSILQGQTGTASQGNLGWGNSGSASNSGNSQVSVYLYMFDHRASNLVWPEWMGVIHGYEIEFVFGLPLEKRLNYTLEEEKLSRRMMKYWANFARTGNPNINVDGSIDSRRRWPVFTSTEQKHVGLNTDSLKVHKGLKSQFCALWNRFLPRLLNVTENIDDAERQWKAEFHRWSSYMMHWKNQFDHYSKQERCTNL
equine BChE, sequence (P81908 whole entry): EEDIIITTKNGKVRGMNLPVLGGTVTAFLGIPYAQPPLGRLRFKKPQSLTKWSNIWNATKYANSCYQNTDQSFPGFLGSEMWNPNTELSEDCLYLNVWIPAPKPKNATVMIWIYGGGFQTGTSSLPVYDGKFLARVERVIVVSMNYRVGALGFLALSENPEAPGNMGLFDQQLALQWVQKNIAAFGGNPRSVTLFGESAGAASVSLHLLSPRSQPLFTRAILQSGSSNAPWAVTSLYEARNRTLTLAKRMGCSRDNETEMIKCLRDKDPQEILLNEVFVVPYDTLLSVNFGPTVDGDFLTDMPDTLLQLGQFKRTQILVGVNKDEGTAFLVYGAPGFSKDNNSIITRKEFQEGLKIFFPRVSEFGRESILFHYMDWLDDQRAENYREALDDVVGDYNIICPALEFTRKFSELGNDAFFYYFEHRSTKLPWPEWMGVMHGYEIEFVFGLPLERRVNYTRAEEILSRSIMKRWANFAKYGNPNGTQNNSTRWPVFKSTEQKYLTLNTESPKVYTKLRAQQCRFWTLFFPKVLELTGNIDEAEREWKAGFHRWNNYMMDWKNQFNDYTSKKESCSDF

With `O=C(CNC(=S)NN=Cc1ccc([N+](=O)[O-])cc1)c1ccccc1Br` [Compound 17, N-(2-(2-Bromophenyl)-2-oxoethyl)-2-(4-nitrobenzylidene)hydrazine-1-carbothioamide], the figures for the IC50 in assay [1] and in assay [2] were 114.6 ± 0.15 µM and 150.4 ± 0.18 µM, respectively.
The like results for `CCOc1ccc(C=NNC(=S)NCC(=O)c2ccc(Br)cc2)cc1` [Compound 6, N-(2-(4-Bromophenyl)-2-oxoethyl)-2-(4-ethoxybenzylidene)hydrazine-1-carbothioamide] were, in that order, 160.04 ± 0.02 µM and 190.21 ± 0.13 µM.
The corresponding values for `Cc1ccc(C(=O)CNC(=S)NN=Cc2ccc([N+](=O)[O-])cc2)cc1` [Compound 12, 2-(4-Nitrobenzylidene)-N-(2-oxo-2-(p-tolyl)ethyl)hydrazine-1-carbothioamide] are 280.24 ± 0.21 µM and 260.38 ± 0.25 µM.
The compound `CCOc1ccc(C=NNC(=S)NCC(=O)c2ccc(Cl)cc2)cc1` [Compound 7, N-(2-(4-Chlorophenyl)-2-oxoethyl)-2-(4-ethoxybenzylidene)hydrazine-1-carbothioamide] gave an IC50 in assay [1] of 140.52 ± 0.11 µM.
The compound `CCOc1ccc(C=NNC(=S)NCC(=O)c2ccc(Cl)cc2Cl)cc1` [Compound 10, N-(2-(2,4-Dichlorophenyl)-2-oxoethyl)-2-(4-ethoxybenzylidene)hydrazine-1-carbothioamide] yielded an IC50 in assay [1] of 275.71 ± 0.12 µM.
The same measure, in the same setting: with `CCOc1ccc(C=NNC(=S)NCC(=O)c2cccc(C)c2)cc1` [Compound 5, 2-(4-Ethoxybenzylidene)-N-(2-oxo-2-(m-tolyl)ethyl)hydrazine-1-carbothioamide] the figure was 295.12 ± 0.12 µM.
Consider `CCOc1ccc(C=NNC(=S)NCC(=O)c2ccccc2)cc1` [Compound 8, 2-(4-Ethoxybenzylidene)-N-(2-oxo-2-phenylethyl)hydrazine-1-carbothioamide], for which the IC50 in assay [1] came out at 220.22 ± 0.14 µM; in assay [2], 260.21 ± 0.23 µM.
With `CCOc1ccc(C=NNC(=S)NCC(=O)c2ccccc2O)cc1` [Compound 9, 2-(4-Ethoxybenzylidene)-N-(2-(2-hydroxyphenyl)-2-oxoethyl)hydrazine-1-carbothioamide], the IC50 in assay [2] turned out to be 147.2 ± 0.09 µM.

A word on the IC50: it is the concentration that gives 50% inhibition. A higher IC50 goes with weaker potency.
